Results reported in publication PMC12169614, “Exploring Long Arm Amide-Linked Side Chains in the Design of Antifungal Azole Inhibitors of Sterol 14α-Demethylase (CYP51)” (Journal of Medicinal Chemistry, 2025).

How the values were obtained:
[1] = test system: Y2721 OE CpCYP51; test: MIC80 determination, strain Y2721; type: cell-based, S. cerevisiae
In short: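 MIC80 values rest on three separate experiments, each measuring pools of 4 clones per strain in triplicate. Starting inoculum was OD600 0.005, equivalent to 1.5 × 10^4 CFU; cultures grew at 30 °C, 200 rpm, for 24 h (C. albicans) or 48 h (S. cerevisiae), with OD600 as read-out.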

[2] = target: CYP1A2 (Homo sapiens, UniProt P05177); test: CYP IC50 profile, CYP1A2; type: biochemical; conditions: human liver drug metabolizing enzyme; read-out: CYP IC50 1A2
CYP1A2, sequence (P05177 whole entry): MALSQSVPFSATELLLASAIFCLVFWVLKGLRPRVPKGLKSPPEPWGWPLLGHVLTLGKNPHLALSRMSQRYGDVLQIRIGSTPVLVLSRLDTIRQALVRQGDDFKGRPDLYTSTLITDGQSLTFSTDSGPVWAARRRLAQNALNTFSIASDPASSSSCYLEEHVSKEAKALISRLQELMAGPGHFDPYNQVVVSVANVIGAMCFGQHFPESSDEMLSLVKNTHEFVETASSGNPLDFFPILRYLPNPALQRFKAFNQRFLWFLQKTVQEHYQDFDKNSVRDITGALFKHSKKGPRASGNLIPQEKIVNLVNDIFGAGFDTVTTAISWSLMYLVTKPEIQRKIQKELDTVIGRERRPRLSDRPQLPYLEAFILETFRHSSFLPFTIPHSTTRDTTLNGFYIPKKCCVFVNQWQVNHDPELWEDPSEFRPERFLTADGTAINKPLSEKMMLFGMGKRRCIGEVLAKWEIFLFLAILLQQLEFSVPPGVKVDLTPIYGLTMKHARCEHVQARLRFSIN

O=C(NCC(O)(Cn1cncn1)c1ccc(F)cc1F)c1ccc(-c2ccc(OC(F)(F)F)cc2)cc1 (stereo not drawn) [Compound 22, N-(2-(2,4-Difluorophenyl)-2-hydroxy-3-(1H-1,2,4-triazol-1-yl)propyl)-4’-(trifluoromethoxy)-[1,1’-biphenyl]-4-carboxamide]
MIC80 ([1]; Saccharomyces cerevisiae): 0.099 µM | MIC ([1]; read-out: MIC (nM) C. parapsilosis model Y2721): 99 nM | IC50 [2]: 9.33 ± 1.39 µM
